Test system: dog
Test: single intravenous administration toxicity using a dog
Format: in vivo
Details: dose of 100 mg/kg
Description: Toxicity of (2R)-2-propyloctanoic acid or a salt thereof is very low, and it is considered to be sufficiently safe for the use as a pharmaceutical drug.

CCCCCC[C@@H](CCC)C(=O)O [(2R)-2-propyloctanoic acid]
death after single intravenous administration: did not result in death
